Where a name gives a salt, the structure may show the parent alone. Starred links: 1 amine or outer side, 2 acyl side, 3 side chain; linkers in the order of their positions; H or OH if unused. Non-standard residues stand in square brackets, D forms with d. Residues, ends and D or L forms follow the SMILES beside them. Groups on a side chain read outwards from the residue. *: point of attachment. Ethylenediamine = C(CN[*:2])N[*:1]; Hyp = O=C(O)[C@@H]1C[C@@H](O)CN1; Phg = N[C@H](C(=O)O)c1ccccc1; CO = O=C([*:1])[*:2]; Bn = c1ccc(C*)cc1

For data set [1] the following is noted: subcutaneous administration; cited from earlier work.
A short description of data set [2]: In vivo pharmacokinetics after IV injection in cannulated rats. The conditions noted are these: Sprague Dawley, rat, plasma, 56 mg/kg conjugate. As to the method: PK assays on the conjugates of Example 5 were performed on cannulated Sprague Dawley rats. […] Blood samples were collected at 0, 1, 2, 4, 8, 12, 24, 48, 72, and 120 hours. At each timepoint a 300 μL blood sample was added to 30 μL of a 1M citrate/0.1% Pluronic® F68 solution, pH 4.5 to lower the pH and remove coagulation factors to give plasma.
A portion of the plasma samples were precipitated by addition of 3 parts acetonitrile and centrifuged at 16000×g for 10 minutes. The samples were analyzed by HPLC for PEG-peptide conjugate and PEG-remnant concentrations. Concentrations were calculated by comparison of peak areas to a standard curve.
A portion of the releasable plasma samples was analyzed by LC/MSMS for free octreotide (MedPace).
The volume of distribution (100 mL/kg) is also in line with previous PEG conjugate, typically measured at the approximate blood volume of the rat (70 mL/kg).

The conditions of data set [3]: subcutaneous administration; cited from earlier work. The source holds these as a separate data set.
For data set [4], the target named is somatostatin receptor 5 (Homo sapiens, UniProt P35346). The conditions noted are these: relative to other somatostatin analogs; cited from earlier work.
somatostatin receptor 5, sequence (P35346 whole entry): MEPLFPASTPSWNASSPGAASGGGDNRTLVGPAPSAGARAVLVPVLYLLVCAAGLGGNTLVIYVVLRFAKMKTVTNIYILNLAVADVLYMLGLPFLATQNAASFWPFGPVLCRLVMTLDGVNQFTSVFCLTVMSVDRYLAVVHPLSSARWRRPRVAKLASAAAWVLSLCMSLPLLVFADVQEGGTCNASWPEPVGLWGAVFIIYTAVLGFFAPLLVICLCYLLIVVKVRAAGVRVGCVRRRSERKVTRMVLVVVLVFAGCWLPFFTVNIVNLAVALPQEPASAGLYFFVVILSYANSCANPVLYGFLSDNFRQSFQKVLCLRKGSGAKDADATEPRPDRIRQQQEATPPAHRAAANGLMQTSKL

The half-life is the time in which the quantity being followed falls by half. Read a high half-life as slow loss. Turning to `C[C@@H](O)[C@@H]1NC(=O)[C@H](CCCCN)NC(=O)[C@@H](Cc2c[nH]c3ccccc23)NC(=O)[C@H](Cc2ccccc2)NC(=O)[C@@H](NC(=O)[C@H](N)Cc2ccccc2)CSSCC(C(=O)N[C@H](CO)[C@@H](C)O)NC1=O` (relative stereo) [Octreotide, D-phenylalanyl-L-cysteinyl-L-phenylalanyl-D-tryptophyl-L-lysyl-L-threonyl-N-[2-hydroxy-1-(hydroxymethyl)propyl]-L-Cysteinamide, cyclic (2→7)-disulfide; [R—(R*,R*)]], the “average half-life of elimination from plasma” value in data set [1] is 1.7 h. In data set [2], this molecule had a half-life of 50 h.

For the molecule `NCCCC[C@@H]1NC(=O)[C@@H](Cc2c[nH]c3ccccc23)NC(=O)[C@H](c2ccccc2)NC(=O)[C@@H]2C[C@@H](OC(=O)NCCN)CN2C(=O)[C@H](Cc2ccccc2)NC(=O)[C@H](Cc2ccc(OCc3ccccc3)cc2)NC1=O` [Pasireotide, (2-aminoethyl) carbamic acid (2R,5,8S,11S,14R,17S,19aS)-11-(4-aminobutyl)-5-benzyl-8-(4-benzyloxybenzyl)-14-(1H-indol-3ylmethyl)-4,7,10,13,16,19-hexaoxo-17-phenyloctadecahydro-3a,6,9,12,15,18-hexaazacyclopentacyclooctadecen-2-yl ester, di[(S)-2-aminosuccinic acid] salt] (cyclo([Hyp]([CO-Ethylenediamine])[Phg][dW]KY(Bn)F)), in data set [3], the effective half-life result is “approximately 12 h” and the volume of distribution was over 100 L. The “increased affinity to somatostatin receptor 5 than other somatostatin analogs” value in data set [4] is 40 fold.
